Earlier results on one molecule are cited in patent US20090306103A1, “PYRIDONECARBOXAMIDE DERIVATIVES USEFUL IN TREATING HYPER-PROLIFERATIVE AND ANGIOGENESIS DISORDERS” (priority 2006, published 2009).

For orientation: IC50 means the point on the concentration scale where inhibition reaches its midpoint.

The subject of one data set is Bcr-Abl E255K mutant. Particulars: read-out: IC50 against E255K mutant; biochemical assay.
The subject of data set [1] is Bcr-Abl Imanitib resistant mutations.
The test system of the next data set is Bcr-Abl. The conditions noted are these: greater potency than Imatinib.

Structures are written as SMILES.

For `Cc1cn(-c2cc(NC(=O)c3ccc(C)c(Nc4nccc(-c5cccnc5)n4)c3)cc(C(F)(F)F)c2)cn1` [AMN-107], in the data set on Bcr-Abl E255K mutant, the half-maximal inhibitory concentration (IC50) is 400 nM. The “inhibition of Imanitib resistant mutations” value in data set [1] is listed as “inhib most Imanitib resistant mutations except for T315I”. Moreover, the “potency of Bcr-Abl kinase inhibition relative to Imatinib” value in the data set with Bcr-Abl is 20 fold.
